Results reported in patent US20090306133A1, “New Acetyl Coenzyme A Carboxylase (ACC) Inhibitors And Uses In Treatments Of Obesity And Diabetes Mellitus - 087” (ASTRAZENECA AB, priority 2007, published 2009).

Legend:
[1] = target: Human recombinant Acetyl-CoA Carboxylase 2 (ACC2) (Homo sapiens, UniProt O00763); experiment: Assay X: ACC2 inhibition, inorganic phosphate (malachite green); format: biochemical; conditions: Assay X: 37° C., 1.5 h, 5 min pre-incubation
Description: (§1) Human recombinant Acetyl-CoA Carboxylase 1 and Acetyl-CoA Carboxylase 2 (ACC1 and ACC2) were assayed by determining the amount of inorganic phosphate (Pi) generated. Pre-incubation of 15 μL enzyme together with 0.75 μL DMSO+/−compound for 5 min was done before the reaction was initiated by the addition of 10 μL substrate. […] After 1.5 h the reaction was stopped by addition of 74 μL of water followed by extensive mixing, split and transfer of 2×40 μL to a read-plate encompassing 30 μL distilled H2O per well (n=2→n=4). Colour reaction was initiated by addition of 30 μL malachite green reagent per well and allowed 15 min before absorbance reading of the plates at 660 nm. The malachite green reagent was prepared by mixing 16.4 mL ammonium molybdate solution (7.5%), 1.64 mL Tween (11%) with 82 mL Malachite Green/H2SO4-solution (0.7 g Malachite Green to 1000 mL of 10% (v/v) H2SO4).
(§2) All compounds were tested in triplicate at 10 different concentrations. Control compound (0, 50 and 100% effect) was included on each plate. […] Curve fitting was done using the following equation: y=(A+((B−A)/(1+((x/C)̂D)))) where A and B represents the curve bottom (% inhibition) and the total amplitude (% inhibition), respectively, whereas C and D are the apparent IC50 and curve slope, respectively.

[2] = target: Human recombinant Acetyl-CoA Carboxylase 1 (ACC1) (Homo sapiens, UniProt Q13085); experiment: Assay X: ACC1 inhibition, inorganic phosphate (malachite green); format: biochemical; conditions: Assay X: 37° C., 1.5 h, 5 min pre-incubation
Description: as §1, §2

Sequence of Human recombinant Acetyl-CoA Carboxylase 2 (ACC2) (O00763 whole entry): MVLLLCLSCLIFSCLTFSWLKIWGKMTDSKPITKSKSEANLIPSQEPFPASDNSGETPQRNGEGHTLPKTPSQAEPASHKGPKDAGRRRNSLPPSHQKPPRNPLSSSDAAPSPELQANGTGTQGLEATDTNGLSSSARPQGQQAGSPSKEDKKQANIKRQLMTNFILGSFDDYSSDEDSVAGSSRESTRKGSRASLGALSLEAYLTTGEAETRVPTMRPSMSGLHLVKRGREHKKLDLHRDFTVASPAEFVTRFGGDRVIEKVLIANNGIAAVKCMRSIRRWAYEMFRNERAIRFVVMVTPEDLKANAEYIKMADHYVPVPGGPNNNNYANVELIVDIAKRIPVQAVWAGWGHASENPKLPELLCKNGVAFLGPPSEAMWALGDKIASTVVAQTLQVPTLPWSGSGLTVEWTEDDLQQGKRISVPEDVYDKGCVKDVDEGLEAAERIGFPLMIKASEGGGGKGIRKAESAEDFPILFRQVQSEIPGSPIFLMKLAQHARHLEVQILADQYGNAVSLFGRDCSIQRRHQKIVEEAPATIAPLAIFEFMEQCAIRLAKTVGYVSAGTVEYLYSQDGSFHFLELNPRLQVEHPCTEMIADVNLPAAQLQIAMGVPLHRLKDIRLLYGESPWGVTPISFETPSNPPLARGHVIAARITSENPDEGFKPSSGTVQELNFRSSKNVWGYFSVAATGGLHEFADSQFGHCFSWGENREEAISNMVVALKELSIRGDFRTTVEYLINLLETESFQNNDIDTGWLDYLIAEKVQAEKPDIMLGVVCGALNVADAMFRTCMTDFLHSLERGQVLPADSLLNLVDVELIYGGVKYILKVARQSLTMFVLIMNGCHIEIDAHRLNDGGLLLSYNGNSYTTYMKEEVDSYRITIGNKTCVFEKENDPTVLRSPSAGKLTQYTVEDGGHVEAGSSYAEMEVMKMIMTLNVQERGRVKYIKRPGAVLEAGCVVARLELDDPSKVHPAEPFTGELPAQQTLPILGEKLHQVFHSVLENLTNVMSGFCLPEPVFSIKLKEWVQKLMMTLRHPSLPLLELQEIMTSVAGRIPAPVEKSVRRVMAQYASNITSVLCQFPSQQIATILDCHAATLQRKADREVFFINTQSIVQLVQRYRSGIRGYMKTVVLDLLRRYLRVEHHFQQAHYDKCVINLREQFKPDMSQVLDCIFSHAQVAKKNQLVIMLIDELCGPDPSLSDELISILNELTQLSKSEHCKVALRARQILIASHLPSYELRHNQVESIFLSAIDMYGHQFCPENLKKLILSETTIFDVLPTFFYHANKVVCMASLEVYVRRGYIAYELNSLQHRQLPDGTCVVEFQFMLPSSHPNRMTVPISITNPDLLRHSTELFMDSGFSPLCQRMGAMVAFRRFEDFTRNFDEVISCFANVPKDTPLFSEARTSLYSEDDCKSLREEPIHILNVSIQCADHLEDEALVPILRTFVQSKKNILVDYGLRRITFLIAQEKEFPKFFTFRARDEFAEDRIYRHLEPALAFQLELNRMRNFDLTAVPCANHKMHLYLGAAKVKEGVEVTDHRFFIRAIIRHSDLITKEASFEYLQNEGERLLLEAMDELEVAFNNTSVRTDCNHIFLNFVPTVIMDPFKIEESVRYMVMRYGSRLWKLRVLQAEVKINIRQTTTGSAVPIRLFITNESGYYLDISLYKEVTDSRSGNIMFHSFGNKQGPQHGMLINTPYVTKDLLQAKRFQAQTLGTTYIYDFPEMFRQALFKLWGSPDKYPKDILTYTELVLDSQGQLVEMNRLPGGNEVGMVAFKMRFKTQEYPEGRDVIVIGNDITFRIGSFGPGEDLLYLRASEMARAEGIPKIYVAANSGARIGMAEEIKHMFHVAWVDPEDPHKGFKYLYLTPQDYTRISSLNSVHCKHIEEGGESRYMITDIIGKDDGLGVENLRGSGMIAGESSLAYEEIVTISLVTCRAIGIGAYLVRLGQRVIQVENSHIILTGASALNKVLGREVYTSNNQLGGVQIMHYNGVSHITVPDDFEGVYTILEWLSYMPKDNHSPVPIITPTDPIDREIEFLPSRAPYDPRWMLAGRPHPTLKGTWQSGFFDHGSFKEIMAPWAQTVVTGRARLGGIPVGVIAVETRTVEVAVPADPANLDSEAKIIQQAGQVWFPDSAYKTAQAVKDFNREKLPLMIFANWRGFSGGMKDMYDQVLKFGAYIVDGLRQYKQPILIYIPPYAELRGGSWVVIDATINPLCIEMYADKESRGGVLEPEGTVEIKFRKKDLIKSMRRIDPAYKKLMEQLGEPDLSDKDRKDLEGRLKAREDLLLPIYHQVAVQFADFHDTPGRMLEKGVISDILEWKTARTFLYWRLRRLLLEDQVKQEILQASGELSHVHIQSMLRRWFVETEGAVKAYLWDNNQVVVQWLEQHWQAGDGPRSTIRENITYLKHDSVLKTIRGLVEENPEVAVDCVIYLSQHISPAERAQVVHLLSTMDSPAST

| Structure (SMILES) | IC50 [1] | IC50 [2] |
| --- | --- | --- |
| O=C(NC[C@H]1CC[C@H](CNC(=O)c2cc(-c3ccc(NCCO)nc3)nc3ccccc23)CC1)O[C@H]1CCOC1 [Example 200, (3S)-Tetrahydrofuran-3-yl{[trans-4-({[(2-{6-[(2-hydroxyethyl)amino]pyridin-3-yl}quinolin-4-yl)carbonyl]amino}methyl)cyclohexyl]methyl}-carbamate] | 1.2 µM | 4.5 µM |
| CC(C)(C)OC(=O)NC[C@H]1CC[C@H](CNC(=O)c2cc(-c3ccc(N4CCNCC4)nc3)nc3ccccc23)CC1 [Example 154, tert-Butyl({trans-4-[({[2-(6-piperazin-1-ylpyridin-3-yl)-quinolin-4-yl]-carbonyl}amino)methyl]cyclohexyl}methyl)carbamate] | 0.05 µM | 0.19 µM |
| CC(=O)NCCC1CCN(c2cc(C(=O)NC[C@H]3CC[C@H](CNC(=O)OC(C)(C)C)CC3)c3ccccc3n2)CC1 [Example 192, tert-Butyl [(trans-4-{[({2-[4-(2-acetamidoethyl)piperidin-1-yl]quinolin-4-yl}carbonyl)amino]methyl}cyclohexyl)methyl]carbamate] | 0.56 µM | 1.96 µM |
| CC(C)(C)OC(=O)NC[C@H]1CC[C@H](CNC(=O)c2cc(-c3ccc(NCCC(N)=O)nc3)nc3ccccc23)CC1 [Example 167, tert-Butyl{[trans-4-({[(2-{6-[(3-amino-3-oxopropyl)amino]pyridin-3-yl}quinolin-4-yl)-carbonyl]amino}methyl)cyclohexyl]methyl}carbamate] | 1.58 µM | 4.4 µM |
| CN(C)CCNc1ccc(-c2cc(C(=O)NC[C@H]3CC[C@H](CNC(=O)OC4CCOCC4)CC3)c3ccccc3n2)cn1 [Example 198, Tetrahydro-2H-pyran-4-yl({trans-4-[({[2-(6-{[2-(dimethylamino)-ethyl]amino}pyridin-3-yl)quinolin-4-yl]carbonyl}amino)-methyl]cyclohexyl}-methyl)carbamate] | 0.38 µM | 1.42 µM |
| CC(C)(C)OC(=O)NC[C@H]1CC[C@H](CNC(=O)c2cc(-c3ccc(OCN4CCCC4=O)nc3)nc3ccccc23)CC1 [Example 177, tert-Butyl{[trans-4-({[(2-{6-[(2-oxopyrrolidin-1-yl)methoxy]pyridin-3-yl}quinolin-4-yl)carbonyl]amino}-methyl)cyclohexyl]-methyl}carbamate] | 1.71 µM | 4.31 µM |
| CC(C)(C)OC(=O)NC[C@H]1CC[C@H](CNC(=O)c2cc(N3CCC(CC(O)CN4CCCC4)CC3)nc3ccccc23)CC1 (relative stereo) [Example 206, tert-butyl [(trans-4-{[({2-[4-(2-hydroxy-3-pyrrolidin-1-ylpropyl)piperidin-1-yl]quinolin-4-yl}carbonyl)amino]methyl}cyclohexyl)methyl]carbamate] | 0.13 µM | 0.973 µM |
| Cc1cnc(CNc2ccc(-c3cc(C(=O)NC[C@H]4CC[C@H](CNC(=O)OC(C)(C)C)CC4)c4ccccc4n3)cn2)cn1 [Example 159, tert-Butyl({trans-4-[({[2-(6-{[(5-methylpyrazin-2-yl)methyl]amino}pyridin-3-yl)quinolin-4-yl]carbonyl}amino)methyl]cyclohexyl}methyl)carbamate] | 0.28 µM | 0.5 µM |
| CC(C)(C)OC(=O)NC[C@H]1CC[C@H](CNC(=O)c2cc(Oc3cccnc3)nc3ccccc23)CC1 [Example 215, tert-Butyl ({trans-4-[({[2-(pyridin-3-yloxy)quinolin-4-yl]carbonyl}amino)-methyl]cyclohexyl}methyl)carbamate] | 0.49 µM | > 20 µM |
| CN(C)CCn1cc(-c2cc(C(=O)NC[C@H]3CC[C@H](CNC(=O)OC(C)(C)C)CC3)c3ccccc3n2)cn1 [Example 242, tert-Butyl {[trans-4-({[(2-{1-[2-(dimethylamino)ethyl]-1H-pyrazol-4-yl}quinolin-4-yl)carbonyl]amino}methyl)cyclohexyl]methyl}carbamate] | 0.24 µM | 1.33 µM |
| CN1CCN(c2ccc(-c3cc(C(=O)NC[C@H]4CC[C@H](CNC(=O)OCc5nccs5)CC4)c4ccccc4n3)cn2)CC1 [Example 130, 1,3-Thiazol-2-ylmethyl-[(trans-4-{[({2-[6-(4-methylpiperazin-1-yl)pyridin-3-yl]quinolin-4-yl}carbonyl)amino]methyl}cyclohexyl)methyl]carbamate] | 0.44 µM | 1.95 µM |
| CC(C)(C)OC(=O)NC[C@H]1CC[C@H](CNC(=O)c2cc(N3CCC(CC(O)CN4CCOCC4)CC3)nc3ccccc23)CC1 (relative stereo) [Example 207, tert-Butyl[(trans-4-{[({2-[4-(2-hydroxy-3-morpholin-4-ylpropyl)piperidin-1-yl]quinolin-4-yl}-carbonyl)amino]methyl}cyclohexyl)methyl]-carbamate] | 0.13 µM | 1.04 µM |
| CN(CCF)CCC1CCN(c2cc(C(=O)NC[C@H]3CC[C@H](CNC(=O)OC(C)(C)C)CC3)c3ccccc3n2)CC1 [Example 245, tert-Butyl ({trans-4-[({[2-(4-(2-((2-fluoroethyl)(methyl)amino)ethyl}piperidin-1-yl)quinolin-4-yl]carbonyl}amino)methyl]cyclohexyl}methyl)carbamate] | 0.18 µM | 1.4 µM |
| CC(C)(C)OC(=O)NC[C@H]1CC[C@H](CNC(=O)c2cc(-c3ccc(OCCO)nc3)nc3ccccc23)CC1 [Example 174, tert-Butyl[(trans-4-{[({2-[6-(2-hydroxyethoxy)-pyridin-3-yl]-quinolin-4-yl}-carbonyl)amino]-methyl}cyclohexyl)methyl]carbamate] | 0.34 µM | 1 µM |
| CN(C)CCOc1ccc(-c2cc(C(=O)NC[C@H]3CC[C@H](CNC(=O)OC4CCOCC4)CC3)c3ccccc3n2)cn1 [Example 195, Tetrahydro-2H-pyran-4-yl {[trans-4-({[(2-{6-[2-(dimethylamino)ethoxy]pyridin-3-yl}quinolin-4-yl)carbonyl]amino}methyl)cyclohexyl]methyl}carbamate] | 0.82 µM | 4.9 µM |
| CC(C)(C)OC(=O)NC[C@H]1CC[C@H](CNC(=O)c2cc(-c3ccc(OC4CCOCC4)nc3)nc3ccccc23)CC1 [Example 175, tert-Butyl[(trans-4-{[({2-[6-(tetrahydro-2H-pyran-4-yloxy)-pyridin-3-yl]-quinolin-4-yl}-carbonyl)amino]-methyl}cyclohexyl)methyl]carbamate] | 0.5 µM | 7.3 µM |
| CN(C)CCC1CCN(c2cc(C(=O)NC[C@H]3CC[C@H](CNC(=O)OCC(C)(C)C)CC3)c3ccccc3n2)CC1 [Example 212, 2,2-Dimethylpropyl {[trans-4-({[(2-{4-[2-(dimethylamino)ethyl]piperidin-1-yl}quinolin-4-yl)carbonyl]amino}methyl)cyclohexyl]methyl}carbamate] | 0.12 µM | 1.19 µM |
| CC(C)(C)OC(=O)NC[C@H]1CC[C@H](CNC(=O)c2cc(-c3ccc(N4CCOC(CO)C4)nc3)nc3ccccc23)CC1 (relative stereo) [Example 171, tert-Butyl{[trans-4-({[(2-{6-[2-(hydroxymethyl)morpholin-4-yl]-pyridin-3-yl}quinolin-4-yl)carbonyl]amino}-methyl)cyclohexyl]-methyl}carbamate] | 0.14 µM | 0.29 µM |
| CN(C)CCOC1CCN(c2cc(C(=O)NC[C@H]3CC[C@H](CNC(=O)OC(C)(C)C)CC3)c3ccccc3n2)CC1 [Example 211, tert-Butyl {[trans-4-({[(2-{4-[2-(dimethylamino)ethoxy]piperidin-1-yl}quinolin-4-yl)carbonyl]amino}methyl)cyclohexyl]methyl}carbamate] | 0.27 µM | 2.22 µM |
| CN1CCN(c2ccc(-c3cc(C(=O)NC[C@H]4CC[C@H](CNC(=O)OCc5cnccn5)CC4)c4ccccc4n3)cn2)CC1 [Example 131, Pyrazin-2-ylmethyl-[(trans-4-{[({2-[6-(4-methylpiperazin-1-yl)pyridin-3-yl]quinolin-4-yl}carbonyl)amino]methyl}cyclohexyl)methyl]carbamate] | 1.59 µM | 5.25 µM |
| CN(C)CCC1CCN(c2cc(C(=O)NC[C@H]3CC[C@H](CNC(=O)OC(C)(C)C)CC3)c3ccccc3n2)CC1 [Example 193, tert-butyl {[trans-4-({[(2-{4-[2-(dimethylamino)ethyl]piperidin-1-yl}quinolin-4-yl)carbonyl]amino}methyl)cyclohexyl]methyl}carbamate] | 0.1 µM | 0.44 µM |
| CC(C)(C)OC(=O)NC[C@H]1CC[C@H](CNC(=O)c2c(N)sc3ccccc23)CC1 [Example 222, tert-Butyl {[trans-4-({[(2-amino-1-benzothiophen-3-yl)carbonyl]amino}methyl)-cyclohexyl]methyl}carbamate] | 3.4 µM | 9.1 µM |
| CC[C@H](Nc1ccc(-c2cc(C(=O)NC[C@H]3CC[C@H](CNC(=O)OC(C)(C)C)CC3)c3ccccc3n2)cn1)C(N)=O [Example 169, tert-Butyl({trans-4-[({[2-(6-{[(1S)-1-carbamoylpropyl]amino}pyridin-3-yl)-quinolin-4-yl]-carbonyl}amino)methyl]cyclohexyl}methyl)carbamate] | 0.65 µM | 1.37 µM |
